Source: patent US20220264910A1, “COMPOSITIONS COMPRISING AMINO ACIDS AND A FURTHER COMPONENT FOR THE SUPPLY OF AMINO ACIDS TO A MONOGASTRIC ANIMAL SUCH AS A HUMAN OR A PIG” (VETAGRO INTERNATIONAL S.R.L., priority 2019, published 2022)

Conditions: pig, in vivo, po

Compound	presence of the marker in the various intestinal tracts
C/C=C/C=C/C(=O)O [sorbic acid]	present in the various intestinal tracts only when administered in encapsulated form in the lipid matrix
COc1cc(C=O)ccc1O [vanillin]	present in the various intestinal tracts only when administered in encapsulated form in the lipid matrix
